Source: patent publication US20220402916A1, “SMALL MOLECULE INHIBITORS OF KRAS G12C MUTANT” (Merck Sharp & Dohme Corp., priority 2019, published 2022)

Target: T1, Biotinylated KRAS G12C protein (Homo sapiens, UniProt P01116, C118S/C51S/C80L/G12C)
T1 construct: 183 amino acids; biotin on K10
Test: SOS-catalyzed nucleotide exchange assay
Type: biochemical
Conditions: 10,000 nM; 60 minutes of preincubation prior to addition of SOS
Description: Compounds are added to this complex, and then after 60 minute incubation time the mixture is treated with recombinant SOS protein and unlabeled GTP. Small molecule inhibitors stabilize the Bodipy-GDP complex whereas the untreated protein rapidly exchanges Bodipy-GDP for unlabeled GTP resulting in reduced TR-FRET signal. […] This mixture is then further diluted to 90 nM in an assay buffer (20 mM HEPES, 150 mM sodium chloride, 10 mM magnesium chloride, and 0.005% Tween) containing 15 nM of Terbium-Streptavidin (Invitrogen, catalog #PV3577) and 900 nM of Bodipy-GDP and incubated at room temperature for six hours. […] Each test compound (10 mM stock in DMSO) is diluted in DMSO to make a 10-point, 3-fold dilution series in a 384-well low dead volume microplate (Labcyte, catalog #LP-0200). Once titrations are made, 10 nL of the diluted compounds is acoustically dispensed into a 384-well assay plate (Corning, catalog #3820) using an Echo 550 (Labcyte). […] Each well then receives 3 μL of 240 nM recombinant human SOS protein and 9 mM GTP (Sigma, G8877) in assay buffer and is incubated at room temperature for 60 minutes. The time-resolved fluorescence resonance energy transfer signal for the assay plate is measured on an Envision (PerkinElmer) plate reader: Excitation filter=340 nm; emission1=495 nm; emission2=520 nm; dichroic mirror=D400/D505; delay time=100 μs. The signal of each well is determined as the ratio of the emission at 520 nm to that at 495 nm. […] The apparent effect as a function of compound concentration is fit to a four parameter logistic equation.

T1 sequence (P01116 with tags, fused parts or gaps isoform P01116-2 G12C/C51S/C80L/C118S): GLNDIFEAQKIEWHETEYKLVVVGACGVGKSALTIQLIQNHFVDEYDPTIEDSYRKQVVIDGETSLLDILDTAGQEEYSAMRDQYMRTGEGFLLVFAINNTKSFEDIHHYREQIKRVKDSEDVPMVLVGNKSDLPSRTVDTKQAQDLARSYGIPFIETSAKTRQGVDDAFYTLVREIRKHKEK

Question: For `C=CC(=O)N1CCN(c2cc(C(=O)NCCCN(C)C)nc3c2CCN(c2cccc4ccccc24)C3)CC1` [Compound 4, 4-(4-acryloylpiperazin-1-yl)-N-(3-(dimethylamino)propyl)-7-(naphthalen-1-yl)-5,6,7,8-tetrahydro-1,7-naphthyridine-2-carboxamide], which inhibition at 10 µM is on record?
Answer: 23%

Question: `C=CC(=O)N1CCN(c2cc(C(=O)N3CCC[C@@H]3CN3CCC(=O)N3)nc3c2CCN(c2cccc4cccc(C)c24)C3)CC1` [Compound 43, (R)-1-((1-(4-(4-acryloylpiperazin-1-yl)-7-(8-methylnaphthalen-1-yl)-5,6,7,8-tetrahydro-1,7-naphthyridine-2-carbonyl)pyrrolidin-2-yl)methyl)pyrazolidin-3-one] was tested. Which inhibition at 10 µM did it give?
Answer: 33%

Question: Which inhibition at 10 µM does the source give for `C=CC(=O)N1CCN(c2cc(C(=O)N[C@@H]3COC[C@@H]3N3CCOCC3)nc3c2CCN(c2cccc4cccc(C)c24)C3)CC1` (racemic) [Compound 27, rac-4-(4-acryloylpiperazin-1-yl)-7-(8-methylnaphthalen-1-yl)-N-(cis-4-morpholinotetrahydrofuran-3-yl)-5,6,7,8-tetrahydro-1,7-naphthyridine-2-carboxamide] here?
Answer: 29%

Question: How did the inhibition at 10 µM turn out when `C=CC(=O)N1CCN(c2cc(C(=O)N(C)C3CCN(C)C3)nc3c2CCN(c2cccc4cccc(C)c24)C3)CC1` (racemic) [Compound 51, rac-4-(4-acryloylpiperazin-1-yl)-N-methyl-7-(8-methylnaphthalen-1-yl)-N-(1-methylpyrrolidin-3-yl)-5,6,7,8-tetrahydro-1,7-naphthyridine-2-carboxamide] was run?
Answer: 36%

Question: How did the inhibition at 10 µM turn out when `C=CC(=O)N1C[C@H](C)N(c2cc(C(=O)NCCN(C)C)nc3c2CCN(c2cccc4cccc(C)c24)C3)C[C@H]1C` [Compound 59, 4-((2S,5R)-4-acryloyl-2,5-dimethylpiperazin-1-yl)-N-(2-(dimethylamino)ethyl)-7-(8-methylnaphthalen-1-yl)-5,6,7,8-tetrahydro-1,7-naphthyridine-2-carboxamide] was run?
Answer: 38%

Question: How did the inhibition at 10 µM turn out when `C=CC(=O)N1CCN(c2cc(C(=O)NCC(C)(C)CN(C)C)nc3c2CCN(c2cccc4cccc(C)c24)C3)CC1` [Compound 22, 4-(4-acryloylpiperazin-1-yl)-N-(3-(dimethylamino)-2,2-dimethylpropyl)-7-(8-methylnaphthalen-1-yl)-5,6,7,8-tetrahydro-1,7-naphthyridine-2-carboxamide] was run?
Answer: 37%

Same assay, conditions: apparent potency; preincubation time of 60 minutes prior to addition of SOS

Question: For `C=CC(=O)N1CCN(c2cc(C(=O)NCCCN(C)C)nc3c2CCN(c2cccc4ccccc24)C3)CC1` [Compound 4, 4-(4-acryloylpiperazin-1-yl)-N-(3-(dimethylamino)propyl)-7-(naphthalen-1-yl)-5,6,7,8-tetrahydro-1,7-naphthyridine-2-carboxamide], which IC50 is on record?
Answer: 9400 nM

Question: `C=CC(=O)N1CCN(c2cc(C(=O)NCCN(C)C)nc3c2CCN(c2cccc4ccccc24)C3)CC1` [Compound 2, 4-(4-acryloylpiperazin-1-yl)-N-(2-(dimethylamino)ethyl)-7-(naphthalen-1-yl)-5,6,7,8-tetrahydro-1,7-naphthyridine-2-carboxamide] was tested. Which IC50 did it give?
Answer: 3150 nM

Question: Which IC50 does the source give for `C=CC(=O)N1CCN(c2cc(C(=O)N[C@@H]3CCN(C)C3)nc3c2CCN(c2cccc4cccc(C)c24)C3)CC1` [Compound 50, (R)-4-(4-acryloylpiperazin-1-yl)-7-(8-methylnaphthalen-1-yl)-N-(1-methylpyrrolidin-3-yl)-5,6,7,8-tetrahydro-1,7-naphthyridine-2-carboxamide] here?
Answer: 3570 nM

Question: For `C=CC(=O)N1CCN(c2cc(C(=O)NC3CCN(C)CC3)nc3c2CCN(c2cccc4cccc(C)c24)C3)CC1` [Compound 54, 4-(4-acryloylpiperazin-1-yl)-7-(8-methylnaphthalen-1-yl)-N-(1-methylpiperidin-4-yl)-5,6,7,8-tetrahydro-1,7-naphthyridine-2-carboxamide], which IC50 is on record?
Answer: 9150 nM

Question: With `C=CC(=O)N1CCN(c2cc(C(=O)N[C@H]3COC[C@@H]3N3CCN(C)CC3)nc3c2CCN(c2cccc4cccc(C)c24)C3)CC1` (racemic) [Compound 33, rac-4-(4-acryloylpiperazin-1-yl)-7-(8-methylnaphthalen-1-yl)-N-(trans-4-(4-methylpiperazin-1-yl)tetrahydrofuran-3-yl)-5,6,7,8-tetrahydro-1,7-naphthyridine-2-carboxamide] as the molecule, how does the IC50 read?
Answer: 6650 nM

Question: For `C=CC(=O)N1CCN(c2cc(C(=O)NC3CCCCN(C)C3)nc3c2CCN(c2cccc4cccc(C)c24)C3)CC1` (racemic) [Compound 53, rac-4-(4-acryloylpiperazin-1-yl)-N-(1-methylazepan-3-yl)-7-(8-methylnaphthalen-1-yl)-5,6,7,8-tetrahydro-1,7-naphthyridine-2-carboxamide], which IC50 is on record?
Answer: 5360 nM

Question: For `C=CC(=O)N1CCN(c2cc(C(=O)N3CCCC3CN3CCCCCC3)nc3c2CCN(c2cccc4cccc(C)c24)C3)CC1` (racemic) [Compound 45, rac-1-(4-(2-(2-(azepan-1-ylmethyl)pyrrolidine-1-carbonyl)-7-(8-methylnaphthalen-1-yl)-5,6,7,8-tetrahydro-1,7-naphthyridin-4-yl)piperazin-1-yl)prop-2-en-1-one], which IC50 is on record?
Answer: 5350 nM

Question: With `C=CC(=O)N1CCN(c2cc(C(=O)N[C@@H]3CCC[C@H]3N(C)C)nc3c2CCN(c2cccc4ccccc24)C3)CC1` (racemic) [Compound 7, rac-4-(4-acryloylpiperazin-1-yl)-N-(trans-2-(dimethylamino)cyclo-pentyl)-7-(naphthalen-1-yl)-5,6,7,8-tetrahydro-1,7-naphthyridine-2-carboxamide] as the molecule, how does the IC50 read?
Answer: 1590 nM

Question: Which IC50 does the source give for `C=CC(=O)N1CCN(c2cc(C(=O)NC(C)CCN(C)C)nc3c2CCN(c2cccc4cccc(C)c24)C3)CC1` (racemic) [Compound 21, rac-4-(4-acryloylpiperazin-1-yl)-N-(4-(dimethylamino)butan-2-yl)-7-(8-methylnaphthalen-1-yl)-5,6,7,8-tetrahydro-1,7-naphthyridine-2-carboxamide] here?
Answer: 3180 nM

Question: Which IC50 does the source give for `C=CC(=O)N1CCN(c2cc(C(=O)N[C@@H]3CCC[C@H]3N(C)C)nc3c2CCN(c2cccc4cccc(C)c24)C3)CC1` (racemic) [Compound 29, rac-4-(4-acryloylpiperazin-1-yl)-N-(trans-2-(dimethylamino)cyclopentyl)-7-(8-methylnaphthalen-1-yl)-5,6,7,8-tetrahydro-1,7-naphthyridine-2-carboxamide] here?
Answer: 259 nM

Question: With `C=CC(=O)N1CCN(c2cc(C(=O)NC(C)CN(CC)CC)nc3c2CCN(c2cccc4cccc(C)c24)C3)CC1` (racemic) [Compound 19, rac-4-(4-acryloylpiperazin-1-yl)-N-(1-(diethylamino)propan-2-yl)-7-(8-methylnaphthalen-1-yl)-5,6,7,8-tetrahydro-1,7-naphthyridine-2-carboxamide] as the molecule, how does the IC50 read?
Answer: 3740 nM

Question: For `C=CC(=O)N1CCN(c2cc(C(=O)N[C@H]3CC[C@@H]3N)nc3c2CCN(c2cccc4cccc(C)c24)C3)CC1` (racemic) [Compound 37, rac-4-(4-acryloylpiperazin-1-yl)-N-(trans-2-aminocyclobutyl)-7-(8-methylnaphthalen-1-yl)-5,6,7,8-tetrahydro-1,7-naphthyridine-2-carboxamide], which IC50 is on record?
Answer: 468 nM

Question: How did the IC50 turn out when `C=CC(=O)N1CCN(c2cc(C(=O)N3CCCC3CN3CCCCC3)nc3c2CCN(c2cccc4cccc(C)c24)C3)CC1` (racemic) [Compound 44, rac-1-(4-(7-(8-methylnaphthalen-1-yl)-2-(2-(piperidin-1-ylmethyl)pyrrolidine-1-carbonyl)-5,6,7,8-tetrahydro-1,7-naphthyridin-4-yl)piperazin-1-yl)prop-2-en-1-one] was run?
Answer: 7870 nM

Question: With `C=CC(=O)N1CCN(c2cc(C(=O)N[C@H]3CCN(C)C3)nc3c2CCN(c2cccc4cccc(C)c24)C3)CC1` [Compound 49, (S)-4-(4-acryloylpiperazin-1-yl)-7-(8-methylnaphthalen-1-yl)-N-(1-methylpyrrolidin-3-yl)-5,6,7,8-tetrahydro-1,7-naphthyridine-2-carboxamide] as the molecule, how does the IC50 read?
Answer: 2180 nM

Question: For `C=CC(=O)N1CCN(c2cc(C(=O)NCCC3CCCN3C)nc3c2CCN(c2cccc4cccc(C)c24)C3)CC1` (racemic) [Compound 57, rac-4-(4-acryloylpiperazin-1-yl)-7-(8-methylnaphthalen-1-yl)-N-(2-(1-methylpyrrolidin-2-yl)ethyl)-5,6,7,8-tetrahydro-1,7-naphthyridine-2-carboxamide], which IC50 is on record?
Answer: 3410 nM

Question: Which IC50 does the source give for `C=CC(=O)N1CCN(c2cc(C(=O)NC3(CN(CC)CC)CC3)nc3c2CCN(c2cccc4cccc(C)c24)C3)CC1` [Compound 26, 4-(4-acryloylpiperazin-1-yl)-N-(1-((diethylamino)methyl)cyclopropyl)-7-(8-methylnaphthalen-1-yl)-5,6,7,8-tetrahydro-1,7-naphthyridine-2-carboxamide] here?
Answer: 187 nM

Question: How did the IC50 turn out when `C=CC(=O)N1CCN(c2cc(C(=O)N[C@@H]3[C@H](N)CCCC3(F)F)nc3c2CCN(c2cccc4cccc(C)c24)C3)C[C@@H]1CC#N` [Compound 95, 4-((S)-4-acryloyl-3-(cyanomethyl)piperazin-1-yl)-N-((1R,6R)-6-amino-2,2-difluorocyclohexyl)-7-(8-methylnaphthalen-1-yl)-5,6,7,8-tetrahydro-1,7-naphthyridine-2-carboxamide] was run?
Answer: 793 nM
